Reference: US20120108557A1, “FLUOROQUINOLONE DERIVATIVES FOR OPHTHALMIC APPLICATIONS” (ALCON RESEARCH, LTD., priority 2008, published 2012)

Legend:
[1] = in vitro; conditions: for Papp at 5 h, 100 μMole / MEAN LAG TIME: female, New Zealand Albino, rabbit; for MEAN LAG TIME: 100 μMole
Description: The procedure used is summarized below.
Female New Zealand Albino rabbits were sacrificed by first anaesthetizing with ketamine (30 mg/Kg) and xylazine (6 mg/Kg) followed by an injection of an overdose of […]* (sodium pentobarbital, 1 ml of a 26% solution) into the marginal ear vein. The intact eyes, along with the lids and conjunctival sacs were then enucleated and immediately stored in about 70 ml of fresh BSS PLUS® irrigation solution saturated with O2/CO2 (95:5).
To accomplish this, the exposed cornea of the enucleated eye was carefully placed on a corneal holder, which maintained the cornea curvature and held the eye in place. Various tissues of the eye were dissected leaving the cornea, a small ring of scleral tissue, and the palpebral conjunctiva. The conjunctival and scleral tissue served as a gasket and permitted the cornea to be suspended within the corneal ring in the center of the perfusion chamber. The chamber was jacketed to maintain the cornea and the perfusion solution at 35° C. The corneal holder and chamber were made from acrylic plastic at the University of Iowa, Iowa City, Iowa.
The mounted cornea was clamped between the two cylindrical compartments of the perfusion chamber and 7.5 mls of BSS PLUS® irrigating solution was placed in the receiving (endothelial) side of the chamber with stirring and bubbling of the O2/CO2 (95:5) mixture. Then, 7 mls of the fluoroquinolone dissolved in BSS PLUS® irrigating solution at a concentration of 100 μMole (this is approximately 4 mg/100 mL) was added to the donor (epithelial) side of the chamber also with stirring and bubbling of the O2/CO2 (95:5) mixture. The difference in volume ensured that the cornea would not buckle during the course of the experiment.
Samples (150 μL) were withdrawn from the receiving chamber every 30 minutes over a five hour period, and an equal volume of irrigating solution was immediately added to the receiving chamber to maintain a constant volume. The concentration of fluoroquinolones in the samples was determined using reverse-phase HPLC. […] Mixtures of acetonitrile and 31 mM phosphoric acid/sodium phosphate buffer at pH=3 were the mobile phase. The mobile phase (acetonitrile:phosphate buffer v/v) and UV detection wavelengths for each of the fluoroquinolones was determined beforehand. […] After each permeability experiment, the cornea was trimmed of excess scleral tissue and conjunctiva, weighed and dried overnight over phosphorus pentoxide in a vacuum desiccator. It was then reweighed in order to determine the hydration level. […] If the cornea is damaged in any way the hydration level rises. Data from corneas with hydration levels over 83% are discarded.
The rate of drug accumulation in the receiving (endothelial) chamber, and the apparent Permeability Coefficients (Papp) of the fluoroquinolones were then calculated as follows: […]

[2] = tested on: Acinetobacter baumannii; assay: In vitro antimicrobial activity, agar dilution MIC; format: cell-based; conditions: test organism 26, Acinetobacter baumannii
Description: (§1) The activity of the compounds of the present invention was evaluated using an in vitro assay. Microorganisms were prepared from growth on agar media, in broth culture, or from thawed cryopreserved cultures. Fungal cultures were filtered to remove mycelial elements.
(§2) Using Mueller Hinton II Broth, 0.9% saline or other appropriate media, a suspension of each culture was prepared and adjusted to a turbidity equivalent to that of a 0.5 McFarland Standard. (Cultures adjusted to the 0.5 McFarland Standard generally contain approximately 1.0×10^8 CFU/mL). The adjusted suspension for each culture was diluted 1:10 in the appropriate media so that the inoculum concentration approximates 1.0×10^7 CFU/mL.
(§3) The antimicrobial agent to be tested was weighed and diluted with a volume of sterile distilled water calculated to yield the necessary starting concentration. Serial 1:2 dilutions of the antimicrobial agent in sterile distilled water were prepared (approximately 10-12 test concentrations comprise a reasonable experimental range). A known amount of each antimicrobial dilution was combined with an aliquot of agar medium calculated to yield the desired final antimicrobial test concentration and dispensed onto plates.
(§4) The amount of antimicrobial agent to be weighed was determined using the following equation: […]
(§5) Antimicrobial stock solutions were prepared at concentrations 5-10 times the highest concentration to be tested (routinely 1024 μg/mL). […] The stock solution was diluted to appropriate concentration using sterile water to form a working solution. The working solution was diluted two-fold, in sterile water, until the desired concentration is obtained.
(§6) Mueller Hinton II agar was prepared as described by the manufacturer. Mueller Hinton II agar may be supplemented with 5% defibrinated sheep blood for testing streptococci. Agar was added to the serially diluted antimicrobial solution in each container. The solutions were mixed thoroughly and poured into petri dishes (about 25 mL/plate). The pH of the agar at 25° C. should be between 7.2 and 7.4.
(§7) At least one inocula control plate was inoculated (agar medium without antimicrobial agent) from each seed plate before inoculating test plates. Test plates were inoculated starting at the lowest concentration and proceeding to the highest concentration. After all test plates were inoculated, an additional control plate (agar medium without antimicrobial agent) was inoculated. The plates were incubated in a non-CO2 incubator (or CO2 incubator depending on growth requirements); 18-24 hours at 32-35° C. was sufficient for most organisms.
(§8) All inoculation points on the agar surface were examined for the presence of growth as compared to the inoculum control plates. The results were summarized and use to determine Minimal Inhibitory Concentrations (MICs): The MIC is the lowest concentration of the antimicrobial agent which prevents visible growth of the organism (negative score).

[3] = tested on: Acinetobacter junii; assay: In vitro antimicrobial activity, agar dilution MIC; format: cell-based
Description: as §1, §2, §3, §4, §5, §6, §7, §8

[4] = tested on: Corynebacterium amycolatum; assay: In vitro antimicrobial activity, agar dilution MIC; format: cell-based
Description: as §1, §2, §3, §4, §5, §6, §7, §8

[5] = tested on: Enterobacter hormaechei; assay: In vitro antimicrobial activity, agar dilution MIC; format: cell-based
Description: as §1, §2, §3, §4, §5, §6, §7, §8

[6] = tested on: Enterococcus faecalis; assay: In vitro antimicrobial activity, agar dilution MIC; format: cell-based
Description: as §1, §2, §3, §4, §5, §6, §7, §8

[7] = tested on: Escherichia coli; assay: In vitro antimicrobial activity, agar dilution MIC; format: cell-based
Description: as §1, §2, §3, §4, §5, §6, §7, §8

[8] = tested on: Pseudomonas aeruginosa; assay: In vitro antimicrobial activity, agar dilution MIC; format: cell-based
Description: as §1, §2, §3, §4, §5, §6, §7, §8

[9] = tested on: Serratia marcescens; assay: In vitro antimicrobial activity, agar dilution MIC; format: cell-based
Description: as §1, §2, §3, §4, §5, §6, §7, §8

[10] = tested on: Staphylococcus epidermidis; assay: In vitro antimicrobial activity, agar dilution MIC; format: cell-based
Description: as §1, §2, §3, §4, §5, §6, §7, §8

[11] = tested on: Streptococcus mitis; assay: In vitro antimicrobial activity, agar dilution MIC; format: cell-based
Description: as §1, §2, §3, §4, §5, §6, §7, §8

[12] = tested on: Streptococcus pneumoniae; assay: In vitro antimicrobial activity, agar dilution MIC; format: cell-based
Description: as §1, §2, §3, §4, §5, §6, §7, §8

[13] = test organism 27, Acinetobacter junii
[14] = test organism 28, Acinetobacter junii
[15] = test organism 29, Acinetobacter junii
[16] = test organism 24, Corynebacterium amycolatum
[17] = test organism 25, Corynebacterium amycolatum
[18] = test organism 31, Enterobacter hormaechei
[19] = test organism 15, Enterococcus faecalis
[20] = test organism 16, Enterococcus faecalis
[21] = test organism 17, Enterococcus faecalis
[22] = test organism 18, Enterococcus faecalis
[23] = test organism 32, Escherichia coli
[24] = test organism 33, Escherichia coli
[25] = test organism 34, Escherichia coli
[26] = test organism 37, Pseudomonas aeruginosa
[27] = test organism 38, Pseudomonas aeruginosa
[28] = test organism 39, Serratia marcescens
[29] = test organism 40, Serratia marcescens
[30] = test organism 7, Staphylococcus epidermidis
[31] = test organism 8, Staphylococcus epidermidis
[32] = test organism 21, Streptococcus mitis
[33] = test organism 22, Streptococcus mitis
[34] = test organism 23, Streptococcus mitis
[35] = test organism 19, Streptococcus pneumoniae
[36] = test organism 20, Streptococcus pneumoniae

| SMILES | Papp at 5 h, 100 μMole [1] [×10⁻⁶ cm/s] | MEAN LAG TIME [1] [min] | Minimal Inhibitory Concentration (MIC) [2] | Minimal Inhibitory Concentration (MIC) [3, 13] | Minimal Inhibitory Concentration (MIC) [3, 14] | Minimal Inhibitory Concentration (MIC) [3, 15] | Minimal Inhibitory Concentration (MIC) [4, 16] | Minimal Inhibitory Concentration (MIC) [4, 17] | Minimal Inhibitory Concentration (MIC) [5, 18] | Minimal Inhibitory Concentration (MIC) [6, 19] | Minimal Inhibitory Concentration (MIC) [6, 20] | Minimal Inhibitory Concentration (MIC) [6, 21] | Minimal Inhibitory Concentration (MIC) [6, 22] | Minimal Inhibitory Concentration (MIC) [7, 23] | Minimal Inhibitory Concentration (MIC) [7, 24] | Minimal Inhibitory Concentration (MIC) [7, 25] | Minimal Inhibitory Concentration (MIC) [8, 26] | Minimal Inhibitory Concentration (MIC) [8, 27] | Minimal Inhibitory Concentration (MIC) [9, 28] | Minimal Inhibitory Concentration (MIC) [9, 29] | other results |
| --- | --- | --- | --- | --- | --- | --- | --- | --- | --- | --- | --- | --- | --- | --- | --- | --- | --- | --- | --- | --- | --- |
| Nc1c(F)c(N2CC3CCCNC3C2)c(F)c2c1c(=O)c(C(=O)O)cn2C1CC1 (racemic) [Compound 3 (racemic)] | 16.6 | 38 | 0.5 | ≦0.25 | 0.125 | >4 | 0.06 | >4 | 4 | 0.125 | 1 | >4 | >2 | 0.06 | ≦0.25 | >4 | >4 | 2 | 0.5 | 1 | Minimal Inhibitory Concentration (MIC) ([5]; test organism 30, Enterobacter hormaechei): 0.5; Minimal Inhibitory Concentration (MIC) [10, 30]: 0.06; Minimal Inhibitory Concentration (MIC) [10, 31]: >2; Minimal Inhibitory Concentration (MIC) [11, 32]: 0.5; Minimal Inhibitory Concentration (MIC) [11, 33]: 0.06; Minimal Inhibitory Concentration (MIC) [11, 34]: 1; Minimal Inhibitory Concentration (MIC) [12, 35]: ≦0.03; Minimal Inhibitory Concentration (MIC) [12, 36]: 0.5 |
| CN1CCCC2CN(c3c(F)cc4c(=O)c(C(=O)O)cn(C5CC5)c4c3F)CC21 (centres unmarked) [Compound 1] | 31.1 | 12 | 0.5 | ≦0.25 | ≦0.03 | 2 | 0.06 | >4 | 4 | 0.5 | >2 | >4 | >2 | 0.06 | ≦0.25 | >4 | >4 | 2 | 1 | 1 | permeability and lag characteristics among the compounds studied (in words) [1]: best permeability and lag characteristics of the compounds studied; Minimal Inhibitory Concentration (MIC) [10, 30]: 0.25; Minimal Inhibitory Concentration (MIC) [10, 31]: >2; Minimal Inhibitory Concentration (MIC) [11, 32]: 0.5; Minimal Inhibitory Concentration (MIC) [11, 33]: 0.25; Minimal Inhibitory Concentration (MIC) [11, 34]: 2; Minimal Inhibitory Concentration (MIC) [12, 35]: 0.125; Minimal Inhibitory Concentration (MIC) [12, 36]: 0.5 |
| Nc1c(F)c(N2CC3CCCNC3C2)c(F)c2c1c(=O)c(C(=O)O)cn2C1CC1 [Compound 3 (S,S)] | 13.6 | 45 | ≦0.25 | ≦0.25 | 0.06 | >4 | 0.5 | >4 | 4 | 0.125 | 0.5 | >4 | >2 | 0.06 | ≦0.25 | >4 | >4 | 0.5 | 0.5 | 1 | Minimal Inhibitory Concentration (MIC) [10, 30]: 0.5; Minimal Inhibitory Concentration (MIC) [10, 31]: 0.5; Minimal Inhibitory Concentration (MIC) [11, 32]: ≦0.25; Minimal Inhibitory Concentration (MIC) [11, 33]: 0.125; Minimal Inhibitory Concentration (MIC) [11, 34]: 1; Minimal Inhibitory Concentration (MIC) [12, 35]: 0.125; Minimal Inhibitory Concentration (MIC) [12, 36]: ≦0.25 |
